Like-named read-outs stand apart in the source and are kept apart here.
Legend:
[1] = tested on: general cellular transcription/translation (R-Luc); assay: Dual-reporter assay, R-Luc in bl-DTR cells; assay type: cell-based; settings: doxycycline, 24 h
Method: (§1) Fig 1 (A) (Top panel) Schematic representation of the primary compound screening using a dual-reporter system. […] (B). […] (Top graphs) bl-DTR cells (1 × 10^4) were treated with twofold serial dilutions of each compound before doxycycline (Dox) addition (final concentration, 50 ng/mL). After 24 h of treatment, the activities of firefly luciferase (F-Luc, red line) and Renilla luciferase (R-Luc, blue line) were determined using the Dual-Glo Luciferase assay system. (Bottom graphs) TZM-bl cells were treated with each indicated compound and subsequently infected with the HIV-1NL4-3 strain at a multiplicity of infection (MOI) of 1. At 48 h after infection, the viral infectivity (purple line) and cell viability (green line) were determined using the Bright-Glo luciferase assay kit and the PrestoBlue Cell Viability Reagent, respectively. […] (C). […] The targeted moieties for the SAR study are marked with dotted-circle lines.
(§2) The Tzm-bl-derived dual Tat reporter; TZM-bl/Tat/Rluc (bl-DTR) cells were established from TZM-bl cells using two Dox-inducible lentiviral expression cassettes cloned with Flag-tagged Tat86 and the R-Luc gene, as described in our previous study ([11]). TZM-bl, A3.01, J1.1, and J-Lat 6.3 cells as well as the HIV-1 molecular clone pNL4-3, pNL(AD8), ARV-resistant HIV-1 strains, and HIV-1NL43-IRES-eGFP (pBR43IeG-nef^+, gifted by Dr. Frank Kirchhoff) ([52]) were provided by the National Institute of Health HIV Reagent Program (NIH, Bethesda, MD, USA). HeLa (CCL-2) and 293T (CRL-3216) cell lines were purchased from the American Type Culture Collection (ATCC, Manassas, VA, USA). The bl-DTR, TZM-bl, HeLa, and 293T cells were cultured in Dulbecco’s modified Eagle’s medium supplemented with 1% penicillin–streptomycin and 10% (vol/vol) heat-inactivated fetal bovine serum (all from Gibco-BRL, Gaithersburg, MD, USA), and 1 µg/mL of puromycin and 200 µg/mL of zeocin were additionally supplemented for the bl-DTR cells. PBMCs were purchased from AllCells (Alameda, CA, USA) and cultured as previously described ([12]). The information on ARV-resistant HIV-1 strains was described in previous reports as follows: NNRTI-resistant 12241 and 12243 ([53]); NRTI-resistant 7396, 7406, and 7407 ([54]); INSTI-resistant 11847 and 11849 ([55], [56]); and PI-resistant 11800 and 11803 ([57]). Each molecular HIV-1 clone was transfected to 293T cells, as previously described ([58]), to obtain infectious HIV-1 particles. Virus-containing cell culture supernatants were collected 3 days after transfection, and filtered through a 0.45-µm membrane filter (Millipore Sigma, Burlington, MA, USA) to remove cell debris. The viral titration was performed as described previously ([59]) with some minor modifications. In brief, 1 × 10^4 TZM-bl cells seeded in 96-well plates were infected with 200 µL of virus-containing medium diluted serially twofold. The incubation was for 2 days and the experiment was performed in triplicate; the infection time minimized the virus spread ([59]). The titration of the infectious viral particles was performed with a ß-Gal staining assay using the ßeta-Galactosidase Staining Kit (Mirus Bio, Madison, WI, USA) following the manufacturer’s protocols. In brief, the infected cells were washed with phosphate-buffered saline (PBS) and fixed using a Cell Fixative Working solution. The cells were washed with PBS and stained using the Cell Staining Working Solution containing X-gal. The infected blue-colored cells were counted under a microscope (100× magnification). The infectious virus titer was determined as a mean value of blue-colored cells count × dilution factor and used for determining the multiplicity of infection (MOI) in each infection experiment.

TZM-bl cells = assay: Cell viability of TZM-bl cells (PrestoBlue); assay type: cell-based
Method: The TZM-bl cells (also referred to as JC53BL-13) expressing human CD4, CXCR4, and CCR5 carrying the F-Luc and lacZ genes downstream of the HIV-1 LTR promoter ([60]) were used to determine the inhibitory effect of the compounds on HIV-1 infection, as previously described ([11], [12], [61]). In brief, 1 × 10^4 cells were cultured in 96-well plates for 24 h and subsequently treated with compounds at the indicated concentrations. Without replacement of the culture medium, the cells were subsequently infected with the HIV-1NL4-3 wild-type or ARV-resistant HIV-1 strains at an MOI of 1 to determine the exact inhibitory effect of compounds on a single-round infection. After 48 h, the inhibitory effect of the compounds was determined using a Bright Glo luciferase assay kit (Promega) or β-Galactosidase Enzyme Assay kit (Promega). The infectivity data were presented as a percentage relative to the dimethyl sulfoxide (DMSO) control (vehicle). Cell viability was determined using the resazurin-based PrestoBlue Cell Viability Reagent (Thermo Fisher Scientific, Waltham, MA, USA) following the manufacturer’s instructions.

HIV-1NL4-3 [2] = assay: HIV-1 infectivity in TZM-bl cells (F-Luc); assay type: cell-based; settings: for EC50: read-out: EC50
[3] = tested on: NNRTI-resistant HIV-1 strain 12241; assay: microbe, parasite or virus in culture; assay type: cell-based; settings: Human immunodeficiency virus 1, TZM-bl
Method: (§3) Fig 7 (A–C) TZM-bl cells (1 × 10^4 cells/well) cultured in a 96-well plate were treated with fivefold serial dilutions of the indicated compound or ARV for 1 h before infection with the HIV-1NL4-3 or ARV-resistant HIV-1 strains at an MOI of 1, respectively. At 48 h after infection, the EC50 values were determined using an F-Luc activity. The symbols represent the fold-change values of EC50 against each mutant virus relative to the wild-type (WT) virus. (D) PBMCs (5 × 10^4 cells/well) were infected with the HIV-1NL4-3 and PIs-resistant HIV-1 strain at an MOI of 0.1, respectively. Subsequently, the PBMCs were treated with 10-fold serial dilutions of the indicated compounds or PI. At 3 days after infection, the EC50 values on the viral replication were determined using a p24 […] assay kit. (E) The inhibitory kinetics for the WT and ARV-resistant viruses. TZM-bl cells infected with WT or ARV-resistant viruses were cultured upon fivefold serial dilutions of each compound for 2 days and the infectivity was determined using an F-Luc activity.
as §2

[4] = tested on: NNRTI-resistant HIV-1 strain 12243; assay: microbe, parasite or virus in culture; assay type: cell-based; settings: Human immunodeficiency virus 1, TZM-bl
Method: as §3, §2

[5] = tested on: Tat-mediated LTR transcription; assay: Dual-reporter assay, F-Luc (Tat-mediated LTR transcription) in bl-DTR cells; assay type: cell-based, HIV-1; settings: bl-DTR cells, doxycycline 50 ng/mL, 24 h; mean ± SD; read-out: IC50 of F-Luc (Tat)
Method: as §1, §2

[6] = tested on: INSTI-resistant HIV-1 strain 11847; assay: microbe, parasite or virus in culture; assay type: cell-based; settings: Human immunodeficiency virus 1, TZM-bl
Method: as §3, §2

[7] = tested on: INSTI-resistant HIV-1 strain 11849; assay: microbe, parasite or virus in culture; assay type: cell-based; settings: Human immunodeficiency virus 1, TZM-bl
Method: as §3, §2

HIV-1NL4-3 [8] = assay: Time-of-addition assay in TZM-bl cells; assay type: cell-based; settings: HIV-1NL4-3 MOI 1, 9 and 13 1.5 μM, T-20 1 µM, triptolide 5 nM, ARVs 1 µM, F-Luc at 54 h
Method: Fig 5 (A) Time-of-addition assay. […] Subsequently, the cells were treated with the compounds at the indicated time points (0, 1, 2, 4, 6, 8, 10, 12, 24, 30, 36, 42, and 48 h) after HIV-1 infection. The final concentrations of compounds are described in Materials and Methods. Viral activity according to the timing of drug addition was measured as F-Luc activity at 54 h after infection. The relative activities are represented as the mean ± SD (n = 3) compared with the activity observed 54 h post-infection. The relative time frames associated with each HIV-1 infection step are defined based on the time frame of susceptibility to the drug that blocks that particular infection step. […] At 16 h after infection, the viral reverse transcription (RT) product (viral cDNA) level was determined by quantitative real-time PCR (RT-qPCR) using gag and 18S rRNA primer sets and represented as the mean ± SD (n = 3) normalized against the amount of the 18S rRNA compared with the DMSO control. **P < 0.01 compared with the vehicle (DMSO). (C) An in vitro integrase (IN) assay was performed with 10 µM of the indicated compounds following the manufacturer’s protocol. **P < 0.01 compared with vehicle (DMSO). (D) A3.01 cells were infected with HIV-1 upon treatment with the indicated compounds (5 µM) and ARVs (EFV and DTG) as the experimental controls. At 40 h after infection, cellular chromosomal DNA was purified, and the integrated proviral DNA was detected through nested Alu-PCR amplification.
A time-of-addition assay was performed as previously described ([25]) with minor modifications. […] Reference drug and test compounds were subsequently added at the indicated time (0, 1, 2, 4, 6, 8, 10, 12, 24, 30, 36, 42, and 48 h after infection). Final concentrations were as follows: compounds 9 and 13 (1.5 μM), T-20 (1 µM), Triptolide (5 nM), and ARVs (AZT, EFV, DTG, RAL) (1 µM). The viral activity according to the timing of drug addition was measured using a Bright Glo luciferase assay kit (Promega). Virus activity curves present a % activity relative to the activity observed at 54 h after infection, and the data are presented as the mean ± standard deviation (SD) (n = 3). The relative time frame associated with each HIV-1 infection step was defined based on the sensitivity to each drug that blocks a particular infection step.

Cc1[nH]c2ccc(-c3nnc(SC(C)C(=O)N4CCCC4)n3CCc3ccccc3)cc2c1C (centres unmarked) [Compound 32, 2-((5-(2,3-Dimethyl-1H-indol-5-yl)-4-phenethyl-4H-1,2,4-triazol-3-yl)thio)-1-(pyrrolidin-1-yl)propan-1-one]
Relative R-Luc activity at IC50 of F-Luc [1]: 90
CC50 (TZM-bl cells; human, 48 h): 63.20 ± 2.65 µM

Cc1ccnc2c1NC(=O)c1cccnc1N2C1CC1 [NVP, nevirapine, reference compound]
EC50 (HIV-1NL4-3 [2]; Human immunodeficiency virus 1, TZM-bl, 48 h, Table S1, WT virus, TZM-bl, fivefold serial dilutions, MOI 1, 48 h): 0.06 µM
EC50 [3]: > 100 µM
EC50 [4]: 23.9 ± 2.3 µM

5-(2,3-Dimethyl-1H-indol-5-yl)-4-phenethyl-4H-1,2,4-triazole-3-thiol [Compound 29]
IC50 [5]: 0.43 ± 0.03 µM
Relative R-Luc activity at IC50 of F-Luc [1]: 90
SI (CC50/EC50) (HIV-1NL4-3 [2]; TZM-bl cells): 164.33
EC50 (HIV-1NL4-3 [2]; TZM-bl cells infected with HIV-1NL4-3 at MOI 1, 48 h, F-Luc, mean ± SD): 0.39 ± 0.03 µM
CC50 (TZM-bl cells; TZM-bl cells, absence of HIV-1 infection, mean ± SD, read-out: CC50): 64.1 ± 6.31 µM

Cc1nnc(C(=O)NC(C)(C)c2nc(C(=O)NCc3ccc(F)cc3)c(O)c(=O)n2C)o1 [RAL, raltegravir, reference compound]
EC50 (HIV-1NL4-3 [2]; Human immunodeficiency virus 1, TZM-bl, Table S1, WT virus, TZM-bl): < 0.001 µM
EC50 [6]: 4.99 ± 0.2 µM
EC50 [7]: 14.3 ± 2.59 µM
time of administration after infection at which effectiveness began to decrease / was lost (HIV-1NL4-3 [8]): 10 h
